Where two headings read alike, the source gives them in different places.
Assays:
site IQ of complex I = site IQ of complex I (Rattus norvegicus, UniProt A6K8N6+P03889+Q641Y2); assay: Mitochondrial ROS/H2O2 production (Amplex Red/HRP), glutamate+malate+succinate with ATR, no inhibitor; format: biochemical
Experimental: Rates of ROS/H2O2 production from heart mitochondria were assessed through the oxidation of the colorless, non-fluorescent indicator Amplex Red in the presence of exogenous horseradish peroxidase (HRP, EC 1.11.1.7, Sigma). H2O2 reacts with Amplex Red in a 1:1 stoichiometry, yielding the fluorescent compound resorufin (excitation: 560 nm; emission: 585 nm) which is stable once formed. Fluorescence was measured continuously with a spectro-fluorometer equipped with temperature control and stirring (SAFAS Xenius, Monaco). Isolated mitochondria (0.1 mg/mL) were incubated in the same experimental buffer than previously, supplemented with 15 μM Amplex Red and 10 μg/mL HRP. Glutamate (5 mM)/malate (2.5 mM) together with succinate (5 mM) were used as complex I and complex II substrates, respectively. Experiments were conducted under non-phosphorylating conditions in the presence of 15 μM atractyloside, i.e., under state IV conditions where […]. Afterwards, rotenone (1.5 μM), antimycin A (2 μM), and myxothiazol (0.2 μM) were sequentially added to inhibit the redox centers within the electron transfer chain (FIG. 2), namely sites IQ, IF (with rotenone), IIIQi (with antimycin A) and IIIQO (with myxothiazol). Assay was finally calibrated with known amounts of H2O2 (steps of 300 nM), in the presence of all relevant compounds, including AOL. The control test of the absence of effect of AOL on the Amplex Red assay itself and NAD(P)H oxidase ROS/H2O2 production was carried out in the absence of cardiac mitochondria and the presence of NAD(P)H oxidase (EC 1.6.3.3, 5 mU/mL, Sigma) and NADH (100 μM) solutions.
Rates of ROS/H2O2 production from heart mitochondria were assessed through the oxidation of the colorless, non-fluorescent indicator Amplex Red in the presence of exogenous horseradish peroxidase (HRP, EC 1.11.1.7, Sigma). H2O2 reacts with Amplex Red in a 1:1 stoichiometry, yielding the fluorescent compound resorufin (excitation: 560 nm; emission: 585 nm) which is stable once formed. Fluorescence was measured continuously with a spectro-fluorometer equipped with temperature control and stirring (SAFAS Xenius, Monaco).
Isolated mitochondria (0.1 mg/mL) were incubated in the same experimental buffer than previously, supplemented with 15 μM Amplex Red and 10 μg/mL HRP. Glutamate (5 mM)/malate (2.5 mM) together with succinate (5 mM) were used as complex I and complex II substrates, respectively. Experiments were conducted under non-phosphorylating conditions in the presence of 15 μM atractyloside. Afterwards, rotenone (1.5 μM), antimycin A (2 μM), and myxothiazol (0.2 μM) were sequentially added to inhibit the redox centers within the electron transfer chain (see FIG. 2), namely sites IQ, IF (with rotenone), IIIQi (with antimycin A) and IIIQO (with myxothiazol). Assay was finally calibrated with known amounts of H2O2 (steps of 300 nM), in the presence of all relevant compounds, including AOX. The control test of the absence of effect of AOL, AOX and Oltipraz on the Amplex Red assay itself and NAD(P)H oxidase […] production was carried out in the absence of cardiac mitochondria and the presence of NAD(P)H oxidase (EC 1.6.3.3, 5 mU/mL, Sigma) and NADH (100 μM) solutions.

site IQ = assay: ROS/H2O2 production, site targeted individually (96-well Amplex Red), 10 mM succinate alone; format: biochemical, rat; details: 0 to 80 μM; effect at concentrations as low as 2.5 μM
Experimental: After freshly isolating mitochondria from rat heart, then measuring protein quantity of the mitochondrial suspension, H2O2 production in response to the exogenous addition of increasing concentrations of AOL, AOX and Oltipraz was measured fluorimetrically with Amplex Red and horseradish peroxidase (HRP).
The two major sites of mitochondrial ROS/H2O2 production were targeted individually using the combination of succinate (energy substrate of respiratory complex 2) and known inhibitors of respiratory chain, namely for site IQ, 10 mM succinate alone (CCCP as positive control) and for site IIIQouter, 10 mM succinate, 4 μM rotenone and 2.5 μM antimycin A (myxothiazol as positive control). These “reaction” solutions were designed to generate maximal rates of ROS/H2O2 production predominantly from a single site within the chain (Quinlan et al. 2013. Redox Biol. 1:304-12).
For measurement, a working solution of 50 μM Amplex red reagent and 20 μg/ml HRP was mixed to the reaction buffer into the corresponding wells of a 96-well plate (Greiner 96 F-bottom), in the absence or presence of increasing concentrations (from 0 to 80 μM) of AOL, AOX or Oltipraz. Addition of mitochondria to a final concentration of 0.125 mg/mL per well initiated the assay. The appropriate total volume per microplate well was 200 μL.
Plates were incubated in the dark at room temperature for 20-25 minutes. A double orbital shaking (100 rpm-3 seconds) was applied before reading the endpoint fluorescence values on a CLARIOstar plate reader (BMG LABTECH GmbH, Germany). In fact, H2O2 reacts with Amplex Red in a 1:1 stoichiometry, yielding the fluorescent compound resorufin that was analyzed using the following optic settings (excitation wavelength at 546-20 nm; emission at 600-40 nm; gain: 750).
Also, an H2O2 standard curve, with concentrations ranging from 0 to 5 μM, was prepared in the experimental buffer that consisted in (in mM): 140 sucrose, 100 KCl, 1 EGTA, 20 MgCl2, 10 KH2PO4, and 1 g/L (w/v) BSA essentially fatty acid free (pH 7.2). […]

Chain of site IQ of complex I (A6K8N6 entry or part of it): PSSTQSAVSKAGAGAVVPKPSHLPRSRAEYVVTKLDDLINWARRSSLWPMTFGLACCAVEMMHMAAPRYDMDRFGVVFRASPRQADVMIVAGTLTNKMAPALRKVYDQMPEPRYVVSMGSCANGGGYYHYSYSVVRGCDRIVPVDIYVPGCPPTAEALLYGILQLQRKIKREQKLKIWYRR
Chain of site IQ of complex I (P03889 whole entry): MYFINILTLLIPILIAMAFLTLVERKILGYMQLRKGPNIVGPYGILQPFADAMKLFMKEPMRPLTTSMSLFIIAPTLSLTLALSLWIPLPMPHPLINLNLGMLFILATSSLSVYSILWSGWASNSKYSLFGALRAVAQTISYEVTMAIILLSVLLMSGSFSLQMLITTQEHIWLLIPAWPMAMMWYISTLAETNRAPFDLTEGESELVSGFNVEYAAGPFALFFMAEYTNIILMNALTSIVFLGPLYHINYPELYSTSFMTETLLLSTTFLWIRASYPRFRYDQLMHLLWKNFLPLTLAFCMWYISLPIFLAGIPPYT
Chain of site IQ of complex I (Q641Y2 34-463): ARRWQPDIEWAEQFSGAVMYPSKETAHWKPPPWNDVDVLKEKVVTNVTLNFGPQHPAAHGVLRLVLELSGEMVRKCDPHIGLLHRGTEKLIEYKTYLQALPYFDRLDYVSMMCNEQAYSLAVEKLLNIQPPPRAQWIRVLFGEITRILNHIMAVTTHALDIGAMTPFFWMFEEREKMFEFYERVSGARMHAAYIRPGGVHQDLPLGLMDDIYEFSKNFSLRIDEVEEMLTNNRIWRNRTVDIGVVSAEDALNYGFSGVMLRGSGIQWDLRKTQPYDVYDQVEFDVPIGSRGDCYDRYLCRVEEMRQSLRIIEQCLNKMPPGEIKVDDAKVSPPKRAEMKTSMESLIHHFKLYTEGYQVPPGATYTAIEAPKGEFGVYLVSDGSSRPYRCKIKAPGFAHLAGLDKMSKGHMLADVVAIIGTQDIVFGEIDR

SMILES | decrease of ROS/H2O2 production measured in the absence of inhibitor (site IQ of complex I; AOL 5 to 80 μM, glutamate, malate, succinate, only ATR present) | inhibition of ROS production in site IQ (site IQ) | lowest concentration showing an inhibitory effect on ROS production by site IQ (site IQ of complex I; AOX 2.5 to 20 μM, glutamate, malate, succinate, ATR) | IC50 (site IQ of complex I; AOX 2.5 to 20 μM, glutamate, malate, succinate, ATR, read-out: estimated IC50 on ROS production by site IQ) | Hill coefficient (site IQ of complex I; fit of FIG. 21) | Maximum (fit parameter) (site IQ of complex I; fit of FIG. 21) | Minimum (fit parameter) (site IQ of complex I; fit of FIG. 21) | IC50 (site IQ of complex I; fit of FIG. 21, read-out: IC50 (fit parameter))
COc1ccc(-c2cc(=S)ss2)cc1 [AOL, 5-(4-methoxyphenyl)-3H-1,2-dithiole-3-thione] | approximately 80% | strongly inhibit the ROS production by complex I | – | – | – | – | – | –
Oc1ccc(-c2cc(=S)ss2)cc1 [AOX, 5-(4-hydroxyphenyl)-3H-1,2-dithiole-3-thione] | – | strongly inhibit the ROS production by complex I | 2.5 µM | ~9.5 µM | 2.616±0.5706 | 554.045±19.73 | −72.5272±68.64 | 9.47 ± 1.02 µM
